In patent publication US5593984A, “Cephalosporin derivatives” (Yuhan Corporation, priority 1992, dated 1997):
Values after ≈ are worked out from the molar mass of the structure shown.

What was measured:
Format in all cases: cell-based
[1] = test system: Prov. stuartii IFO 12930; assay: MIC by agar dilution, Prov. stuartii IFO 12930; conditions: Providencia stuartii, IFO12930, 17 h, Mueller-Hinton agar, read-out: Minimal Inhibitory Concentration (MIC)
In short: (§1)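 Each compound was serially halved and mixed into Mueller-Hinton agar medium. Bacteria (10^6 CFU per ml) were then inoculated by replicator, and growth was assessed after incubation for 17±1 hours at 35°-37° C.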

[2] = test system: Ps. aeruginosa NCTC 10490; assay: MIC by agar dilution, Ps. aeruginosa NCTC 10490; conditions: Pseudomonas aeruginosa, NCTC10490, 17 h, Mueller-Hinton agar, read-out: Minimal Inhibitory Concentration (MIC)
In short: as §1

[3] = test system: K. pneumoniae NCTC 9632; assay: MIC by agar dilution, K. pneumoniae NCTC 9632; conditions: Klebsiella pneumoniae, NCTC9632, 17 h; K. pneumoniae NCTC 9632; agar dilution, Mueller-Hinton agar; read-out: Minimal Inhibitory Concentration (MIC)
In short: as §1

[4] = test system: Ent. cloacae IFO 13535; assay: MIC by agar dilution, Ent. cloacae IFO 13535; conditions: Enterobacter cloacae, IFO13535, 17 h; Ent. cloacae IFO 13535; agar dilution, Mueller-Hinton agar; read-out: Minimal Inhibitory Concentration (MIC)
In short: as §1

[5] = test system: Staph. aureus C-5216; assay: MIC by agar dilution, Staph. aureus C-5216; conditions: Staphylococcus aureus, C5216, 17 h, Mueller-Hinton agar, read-out: Minimal Inhibitory Concentration (MIC)
In short: as §1

[6] = test system: E. coli No. 29; assay: MIC by agar dilution, E. coli No. 29; conditions: Escherichia coli, 17 h; E. coli No. 29; agar dilution, Mueller-Hinton agar; read-out: Minimal Inhibitory Concentration (MIC)
In short: as §1

[7] = test system: Ent. aerogenes IFO 12979; assay: MIC by agar dilution, Ent. aerogenes IFO 12979; conditions: Klebsiella aerogenes, IFO12979, 17 h, Mueller-Hinton agar, read-out: Minimal Inhibitory Concentration (MIC)
In short: as §1

[8] = test system: Ps. aeruginosa ATCC 10145; assay: MIC by agar dilution, Ps. aeruginosa ATCC 10145; conditions: Pseudomonas aeruginosa, ATCC10145, 17 h, Mueller-Hinton agar, read-out: Minimal Inhibitory Concentration (MIC)
In short: as §1

[9] = test system: Staph. aureus C-57; assay: MIC by agar dilution, Staph. aureus C-57; conditions: Staphylococcus aureus, C57, 17 h, Mueller-Hinton agar, read-out: Minimal Inhibitory Concentration (MIC)
In short: as §1

[10] = test system: E. coli NIHJ JC-2; assay: MIC by agar dilution, E. coli NIHJ JC-2; conditions: Escherichia coli, NIHJJC2, 17 h; E. coli NIHJ JC-2; agar dilution, Mueller-Hinton agar; read-out: Minimal Inhibitory Concentration (MIC)
In short: as §1

[11] = test system: E. coli DY-1; assay: MIC by agar dilution, E. coli DY-1; conditions: Escherichia coli, DY1, 17 h; E. coli DY-1; agar dilution, Mueller-Hinton agar; read-out: Minimal Inhibitory Concentration (MIC)
In short: as §1

[12] = test system: Staph. aureus C-5113; assay: MIC by agar dilution, Staph. aureus C-5113; conditions: Staphylococcus aureus, C5113, 17 h, Mueller-Hinton agar, read-out: Minimal Inhibitory Concentration (MIC)
In short: as §1

[13] = test system: Staph. aureus ATCC 6538P; assay: MIC by agar dilution, Staph. aureus ATCC 6538P; conditions: Staphylococcus aureus, ATCC6538P, 17 h; Staph. aureus ATCC 6538P; agar dilution, Mueller-Hinton agar; read-out: Minimal Inhibitory Concentration (MIC)
In short: as §1

[14] = test system: M. morganii DY-1; assay: MIC by agar dilution, M. morganii DY-1; conditions: Morganella morganii, DY1, 17 h; M. morganii DY-1; agar dilution, Mueller-Hinton agar; read-out: Minimal Inhibitory Concentration (MIC)
In short: as §1

[15] = test system: B. subtilis ATCC 6633; assay: MIC by agar dilution, B. subtilis ATCC 6633; conditions: Bacillus subtilis, ATCC6633, 17 h; B. subtilis ATCC 6633; agar dilution, Mueller-Hinton agar; read-out: Minimal Inhibitory Concentration (MIC)
In short: as §1

[16] = test system: S. epidermidis ATCC 12228; assay: MIC by agar dilution, S. epidermidis ATCC 12228; conditions: Staphylococcus epidermidis, ATCC12228, 17 h; S. epidermidis ATCC 12228; agar dilution, Mueller-Hinton agar; read-out: Minimal Inhibitory Concentration (MIC)
In short: as §1

[17] = test system: Ser. marcescens IFO 12648; assay: MIC by agar dilution, Ser. marcescens IFO 12648; conditions: Serratia marcescens, IFO12648, 17 h; Ser. marcescens IFO 12648; agar dilution, Mueller-Hinton agar; read-out: Minimal Inhibitory Concentration (MIC)
In short: as §1

[18] = test system: P. vulgaris NCTC 8313; assay: MIC by agar dilution, P. vulgaris NCTC 8313; conditions: Proteus vulgaris, NCTC8313, 17 h; P. vulgaris NCTC 8313; agar dilution, Mueller-Hinton agar; read-out: Minimal Inhibitory Concentration (MIC)
In short: as §1

[19] = test system: Ps. aeruginosa DY-2; assay: MIC by agar dilution, Ps. aeruginosa DY-2; conditions: Pseudomonas aeruginosa, DY2, 17 h; Ps. aeruginosa DY-2; agar dilution, Mueller-Hinton agar; read-out: Minimal Inhibitory Concentration (MIC)
In short: as §1

[20] = test system: Staph. aureus Smith; assay: MIC by agar dilution, Staph. aureus Smith; conditions: Staphylococcus aureus, 17 h, Mueller-Hinton agar, read-out: Minimal Inhibitory Concentration (MIC)
In short: as §1

| MIC [1] | MIC [2] | MIC [3] | MIC [4] | MIC [5] | MIC [6] | MIC [7] | MIC [8] | MIC [9] | MIC [10] | MIC [11] | MIC [12] | MIC [13] | MIC [14] | MIC [15] | MIC [16] | MIC [17] | MIC [18] | MIC [19] | MIC [20] | SMILES |
| --- | --- | --- | --- | --- | --- | --- | --- | --- | --- | --- | --- | --- | --- | --- | --- | --- | --- | --- | --- | --- |
| 12 ng/mL (≈ 0.0227 µM) | 0.2 µg/mL (≈ 0.378 µM) | 0.012 µg/mL (≈ 0.0227 µM) | 0.1 µg/mL (≈ 0.189 µM) | 0.39 µg/mL (≈ 0.738 µM) | 25 ng/mL (≈ 0.0473 µM) | 0.025 µg/mL (≈ 0.0473 µM) | 0.78 µg/mL (≈ 1.48 µM) | 1.56 µg/mL (≈ 2.95 µM) | 0.012 µg/mL (≈ 0.0227 µM) | 0.025 µg/mL (≈ 0.0473 µM) | 0.2 µg/mL (≈ 0.378 µM) | 0.1 µg/mL (≈ 0.189 µM) | 0.05 µg/mL (≈ 0.0946 µM) | 0.2 µg/mL (≈ 0.378 µM) | 0.05 µg/mL (≈ 0.0946 µM) | 0.025 µg/mL (≈ 0.0473 µM) | 0.05 µg/mL (≈ 0.0946 µM) | 1.56 µg/mL (≈ 2.95 µM) | 0.78 µg/mL (≈ 1.48 µM) | CO/N=C(\C(=O)N[C@@H]1C(=O)N2C(C(=O)[O-])=C(C[n+]3ccn4cccc4c3C)CS[C@H]12)c1nsc(N)n1 [Ex. 57, 7-β-[(Z)-2-(5-amino-1,2,4-thiadiazol-3-yl)-2-methoxyiminoacetamido]-3-(1-methylpyrrolo[1,2-a]-pyrazinium-2-yl)methyl-3-cephem-4-carboxylate] |
| ≤ 6 ng/mL | 0.2 µg/mL (≈ 0.34 µM) | 0.012 µg/mL (≈ 0.0204 µM) | 0.1 µg/mL (≈ 0.17 µM) | 0.78 µg/mL (≈ 1.32 µM) | ≤ 6 ng/mL | ≤ 0.006 µg/mL | 0.78 µg/mL (≈ 1.32 µM) | 100 µg/mL (≈ 170 µM) | ≤ 0.006 µg/mL | ≤ 0.006 µg/mL | 0.78 µg/mL (≈ 1.32 µM) | 0.2 µg/mL (≈ 0.34 µM) | 0.012 µg/mL (≈ 0.0204 µM) | 0.1 µg/mL (≈ 0.17 µM) | 0.05 µg/mL (≈ 0.0849 µM) | 0.012 µg/mL (≈ 0.0204 µM) | ≤ 0.006 µg/mL | 1.56 µg/mL (≈ 2.65 µM) | 0.78 µg/mL (≈ 1.32 µM) | CON=C(C(=O)NC1C(=O)N2C(C(=O)[O-])=C(C[n+]3ccn4c(SCCN)ccc4c3)CSC12)c1csc(N)n1 (stereo not drawn) [Ex. 27, 7-β-[(Z)-2-(2-aminothiazol-4-yl)2-methoxyiminoacetamido]-3-[6-(2-aminoethylthio)pyrrolo[1,2-a]pyrazinium-2-yl]methyl-3-cephem-4-carboxylate] |
| ≤ 6 ng/mL | 0.1 µg/mL (≈ 0.184 µM) | 0.025 µg/mL (≈ 0.0459 µM) | 0.1 µg/mL (≈ 0.184 µM) | 3.13 µg/mL (≈ 5.75 µM) | ≤ 6 ng/mL | 0.025 µg/mL (≈ 0.0459 µM) | 0.78 µg/mL (≈ 1.43 µM) | 25 µg/mL (≈ 45.9 µM) | 0.012 µg/mL (≈ 0.022 µM) | 0.012 µg/mL (≈ 0.022 µM) | 6.25 µg/mL (≈ 11.5 µM) | 0.78 µg/mL (≈ 1.43 µM) | 0.025 µg/mL (≈ 0.0459 µM) | 0.1 µg/mL (≈ 0.184 µM) | 0.2 µg/mL (≈ 0.367 µM) | 0.025 µg/mL (≈ 0.0459 µM) | 0.05 µg/mL (≈ 0.0918 µM) | 1.56 µg/mL (≈ 2.86 µM) | 1.56 µg/mL (≈ 2.86 µM) | CO/N=C(\C(=O)N[C@@H]1C(=O)N2C(C(=O)[O-])=C(C[n+]3ccn4ccc(CO)c4c3)CS[C@H]12)c1nsc(N)n1 [Ex. 55, 7-β-[(Z)-2-(5-amino-1,2,4-thiadiazol-3-yl)-2-methoxyiminoacetamido]-3-(8-hydroxymethylpyrrolo[1,2-a]-pyrazinium-2-yl)methyl-3-cephem-4-carboxylate] |
| ≤ 6 ng/mL | 0.2 µg/mL (≈ 0.359 µM) | 0.012 µg/mL (≈ 0.0215 µM) | 0.1 µg/mL (≈ 0.179 µM) | 1.56 µg/mL (≈ 2.8 µM) | ≤ 6 ng/mL | ≤ 0.006 µg/mL | 0.78 µg/mL (≈ 1.4 µM) | 50 µg/mL (≈ 89.7 µM) | 0.025 µg/mL (≈ 0.0448 µM) | ≤ 0.006 µg/mL | 1.56 µg/mL (≈ 2.8 µM) | 0.2 µg/mL (≈ 0.359 µM) | 0.012 µg/mL (≈ 0.0215 µM) | 0.1 µg/mL (≈ 0.179 µM) | 0.2 µg/mL (≈ 0.359 µM) | 0.025 µg/mL (≈ 0.0448 µM) | 0.012 µg/mL (≈ 0.0215 µM) | 3.13 µg/mL (≈ 5.61 µM) | 0.78 µg/mL (≈ 1.4 µM) | CON=C(C(=O)NC1C(=O)N2C(C(=O)[O-])=C(C[n+]3ccn4c(C(C)O)ccc4c3)CSC12)c1csc(N)n1 (stereo not drawn) [Ex. 20, 7-β-[(Z)-2-(2-aminothiazol-4-yl)-2-methoxyiminoacetamido]-3-[6-(1-hydroxyethyl)pyrrolo[1,2-a]pyrazinium-2-yl]methyl-3-cephem-4-carboxylate] |
